According to ChEMBL document CHEMBL1909046, “DrugMatrix in vitro pharmacology data”:
Where a SMILES comes first, the peptide text is derived from it. Bridges are numbered along the chain shown (N, C = ends). [ ]: non-standard residue; d: D form. The star is where a group is joined. Threoninol(2S,3R) = C[C@@H](O)[C@H](CO)N*

What was measured:
[1] = target: T1, Alpha-2A adrenergic receptor (Homo sapiens, UniProt P08913); type: cell membranes, Sf9, Membrane; also: in other assays of this panel Not Active means under 50% inhibition at 10 µM
T1 sequence (P08913 whole entry): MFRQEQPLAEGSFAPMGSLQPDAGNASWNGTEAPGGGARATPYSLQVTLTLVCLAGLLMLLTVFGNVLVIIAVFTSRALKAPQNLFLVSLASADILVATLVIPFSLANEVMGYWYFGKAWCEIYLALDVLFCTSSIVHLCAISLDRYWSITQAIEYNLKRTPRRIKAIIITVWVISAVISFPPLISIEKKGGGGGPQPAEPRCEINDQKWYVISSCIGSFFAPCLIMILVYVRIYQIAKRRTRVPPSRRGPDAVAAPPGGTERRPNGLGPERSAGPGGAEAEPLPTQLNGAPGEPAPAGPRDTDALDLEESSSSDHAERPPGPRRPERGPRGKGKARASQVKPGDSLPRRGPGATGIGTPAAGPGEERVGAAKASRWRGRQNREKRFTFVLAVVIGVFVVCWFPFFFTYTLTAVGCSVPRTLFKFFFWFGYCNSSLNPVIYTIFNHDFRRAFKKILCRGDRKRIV

[2] = target: Prostaglandin G/H synthase 1 (Homo sapiens, UniProt P23219); assay: biochemical; type: tissue-based, Platelet; settings: platelet;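 also: inhibition of COX-1 enzyme activity, with arachidonic acid supplied as substrate; in other assays of this panel Not Active means under 50% inhibition at 10 µM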
[3] = target: T2, Cholecystokinin receptor type A (Homo sapiens, UniProt P32238); type: cell membranes, Membrane; settings: 1321-n1; also: in other assays of this panel Not Active means under 50% inhibition at 10 µM
T2 sequence (P32238 whole entry): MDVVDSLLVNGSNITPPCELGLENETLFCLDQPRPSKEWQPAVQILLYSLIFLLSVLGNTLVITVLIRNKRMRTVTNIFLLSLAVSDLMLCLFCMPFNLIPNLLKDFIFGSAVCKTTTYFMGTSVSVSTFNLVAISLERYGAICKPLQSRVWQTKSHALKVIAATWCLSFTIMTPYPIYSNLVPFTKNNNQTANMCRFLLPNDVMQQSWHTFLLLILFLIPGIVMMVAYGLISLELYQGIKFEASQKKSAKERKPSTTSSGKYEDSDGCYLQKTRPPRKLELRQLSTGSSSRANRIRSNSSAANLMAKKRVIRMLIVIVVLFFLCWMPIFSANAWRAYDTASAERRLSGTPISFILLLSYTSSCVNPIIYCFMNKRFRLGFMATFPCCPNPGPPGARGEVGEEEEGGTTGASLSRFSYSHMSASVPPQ

[4] = target: Vascular endothelial growth factor receptor 1 (Homo sapiens, UniProt P17948); type: cell-based; settings: huvec; also: in other assays of this panel Not Active means under 50% inhibition at 10 µM
[5] = DRUGMATRIX: Sodium/nucleoside co-transporter radioligand binding (ligand: nitrobenzylthioinosine); type: cell membranes, Cavia porcellus, Dunkin-Hartley, Cerebral cortex, Membrane; settings: Not Active = under 50% inhibition at 10 µM
Caspase-1 = target: T3, Caspase-1 (Homo sapiens, UniProt P29466); design: species or system Escherichia coli
T3 sequence (P29466 whole entry): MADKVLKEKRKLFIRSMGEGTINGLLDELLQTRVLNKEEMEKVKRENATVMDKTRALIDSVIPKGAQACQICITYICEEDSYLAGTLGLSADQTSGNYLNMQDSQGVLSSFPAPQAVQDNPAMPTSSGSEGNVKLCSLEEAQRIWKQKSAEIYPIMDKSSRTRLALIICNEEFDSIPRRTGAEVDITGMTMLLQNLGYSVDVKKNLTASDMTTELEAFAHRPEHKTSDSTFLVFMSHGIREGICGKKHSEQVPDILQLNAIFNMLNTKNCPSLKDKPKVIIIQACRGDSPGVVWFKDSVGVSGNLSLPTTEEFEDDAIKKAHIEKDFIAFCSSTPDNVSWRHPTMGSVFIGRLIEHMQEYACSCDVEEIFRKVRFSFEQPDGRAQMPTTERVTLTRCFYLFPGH

Nitric oxide synthase 1 = Nitric oxide synthase 1 (Rattus norvegicus, UniProt P29476); type: tissue-based, Cerebellum; also: in other assays of this panel Not Active means under 50% inhibition at 10 µM
Nitric oxide synthase 1, sequence (P29476 whole entry): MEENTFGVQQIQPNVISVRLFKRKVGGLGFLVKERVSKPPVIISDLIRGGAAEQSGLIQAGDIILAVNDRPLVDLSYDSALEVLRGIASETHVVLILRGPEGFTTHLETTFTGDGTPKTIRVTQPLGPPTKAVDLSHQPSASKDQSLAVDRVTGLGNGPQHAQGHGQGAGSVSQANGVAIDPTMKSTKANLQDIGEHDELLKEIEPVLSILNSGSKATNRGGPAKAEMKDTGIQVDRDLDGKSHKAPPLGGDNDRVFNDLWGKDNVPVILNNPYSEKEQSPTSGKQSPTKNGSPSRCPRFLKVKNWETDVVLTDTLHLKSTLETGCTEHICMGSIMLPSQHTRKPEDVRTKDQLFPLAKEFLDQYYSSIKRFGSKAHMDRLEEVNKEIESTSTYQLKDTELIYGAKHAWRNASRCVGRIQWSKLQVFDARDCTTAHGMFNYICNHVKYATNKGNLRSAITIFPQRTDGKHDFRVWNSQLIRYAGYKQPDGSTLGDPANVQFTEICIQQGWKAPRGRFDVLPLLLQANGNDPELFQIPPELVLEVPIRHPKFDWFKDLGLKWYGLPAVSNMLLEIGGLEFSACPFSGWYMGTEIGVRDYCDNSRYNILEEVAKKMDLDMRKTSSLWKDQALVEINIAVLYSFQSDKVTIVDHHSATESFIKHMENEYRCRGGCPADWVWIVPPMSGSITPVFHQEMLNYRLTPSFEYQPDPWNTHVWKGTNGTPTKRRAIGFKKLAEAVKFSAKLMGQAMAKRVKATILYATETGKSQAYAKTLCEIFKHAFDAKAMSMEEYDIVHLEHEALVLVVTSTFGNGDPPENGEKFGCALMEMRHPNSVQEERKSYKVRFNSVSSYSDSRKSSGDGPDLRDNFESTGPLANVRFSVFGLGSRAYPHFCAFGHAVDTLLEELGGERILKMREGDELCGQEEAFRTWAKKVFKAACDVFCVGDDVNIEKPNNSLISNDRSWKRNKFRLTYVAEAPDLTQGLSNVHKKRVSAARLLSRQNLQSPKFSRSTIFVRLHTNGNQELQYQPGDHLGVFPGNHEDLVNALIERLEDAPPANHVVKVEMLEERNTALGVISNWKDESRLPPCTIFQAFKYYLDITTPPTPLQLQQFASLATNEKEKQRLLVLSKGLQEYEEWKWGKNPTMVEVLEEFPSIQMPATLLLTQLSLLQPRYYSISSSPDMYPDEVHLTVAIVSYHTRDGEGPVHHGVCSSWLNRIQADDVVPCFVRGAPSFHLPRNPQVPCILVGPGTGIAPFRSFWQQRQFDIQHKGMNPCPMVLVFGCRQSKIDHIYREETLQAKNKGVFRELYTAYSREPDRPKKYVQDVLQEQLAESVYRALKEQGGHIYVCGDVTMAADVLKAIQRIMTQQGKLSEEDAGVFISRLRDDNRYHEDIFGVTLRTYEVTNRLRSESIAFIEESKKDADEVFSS

Vascular endothelial growth factor receptor 1, sequence (P17948 whole entry): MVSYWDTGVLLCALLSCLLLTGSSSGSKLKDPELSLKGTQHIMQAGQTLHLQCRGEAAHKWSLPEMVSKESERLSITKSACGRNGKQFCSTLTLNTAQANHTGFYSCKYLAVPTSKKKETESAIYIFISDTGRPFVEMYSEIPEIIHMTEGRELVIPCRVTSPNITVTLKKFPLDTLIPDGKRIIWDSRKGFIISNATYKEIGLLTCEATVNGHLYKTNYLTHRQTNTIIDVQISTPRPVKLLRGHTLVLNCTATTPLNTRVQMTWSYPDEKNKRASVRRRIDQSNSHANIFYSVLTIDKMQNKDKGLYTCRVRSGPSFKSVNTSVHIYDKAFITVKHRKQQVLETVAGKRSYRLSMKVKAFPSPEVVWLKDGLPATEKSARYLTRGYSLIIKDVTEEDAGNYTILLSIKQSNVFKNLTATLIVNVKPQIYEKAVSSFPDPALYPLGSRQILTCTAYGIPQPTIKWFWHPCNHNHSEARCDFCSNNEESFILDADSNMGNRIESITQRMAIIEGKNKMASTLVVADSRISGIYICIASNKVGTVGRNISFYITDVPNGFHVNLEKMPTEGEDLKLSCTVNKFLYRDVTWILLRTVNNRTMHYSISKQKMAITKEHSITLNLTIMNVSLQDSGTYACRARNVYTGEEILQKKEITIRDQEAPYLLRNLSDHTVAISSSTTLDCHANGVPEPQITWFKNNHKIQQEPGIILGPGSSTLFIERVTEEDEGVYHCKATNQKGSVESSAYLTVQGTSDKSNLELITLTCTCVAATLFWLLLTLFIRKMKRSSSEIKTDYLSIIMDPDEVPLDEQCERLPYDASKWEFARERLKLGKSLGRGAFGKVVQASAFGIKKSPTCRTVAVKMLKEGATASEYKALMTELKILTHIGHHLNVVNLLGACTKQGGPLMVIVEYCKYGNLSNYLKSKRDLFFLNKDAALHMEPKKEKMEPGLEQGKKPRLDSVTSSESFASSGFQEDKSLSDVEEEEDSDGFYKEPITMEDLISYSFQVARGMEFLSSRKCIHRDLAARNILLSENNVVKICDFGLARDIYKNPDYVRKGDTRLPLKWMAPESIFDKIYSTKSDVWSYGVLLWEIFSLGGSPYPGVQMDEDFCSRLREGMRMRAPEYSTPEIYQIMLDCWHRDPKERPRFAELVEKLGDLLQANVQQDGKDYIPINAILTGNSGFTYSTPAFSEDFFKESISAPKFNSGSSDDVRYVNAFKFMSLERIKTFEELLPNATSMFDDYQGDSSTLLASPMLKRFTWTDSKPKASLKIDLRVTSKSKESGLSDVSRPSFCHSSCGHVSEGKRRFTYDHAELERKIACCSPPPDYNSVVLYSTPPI
Prostaglandin G/H synthase 1, sequence (P23219 whole entry): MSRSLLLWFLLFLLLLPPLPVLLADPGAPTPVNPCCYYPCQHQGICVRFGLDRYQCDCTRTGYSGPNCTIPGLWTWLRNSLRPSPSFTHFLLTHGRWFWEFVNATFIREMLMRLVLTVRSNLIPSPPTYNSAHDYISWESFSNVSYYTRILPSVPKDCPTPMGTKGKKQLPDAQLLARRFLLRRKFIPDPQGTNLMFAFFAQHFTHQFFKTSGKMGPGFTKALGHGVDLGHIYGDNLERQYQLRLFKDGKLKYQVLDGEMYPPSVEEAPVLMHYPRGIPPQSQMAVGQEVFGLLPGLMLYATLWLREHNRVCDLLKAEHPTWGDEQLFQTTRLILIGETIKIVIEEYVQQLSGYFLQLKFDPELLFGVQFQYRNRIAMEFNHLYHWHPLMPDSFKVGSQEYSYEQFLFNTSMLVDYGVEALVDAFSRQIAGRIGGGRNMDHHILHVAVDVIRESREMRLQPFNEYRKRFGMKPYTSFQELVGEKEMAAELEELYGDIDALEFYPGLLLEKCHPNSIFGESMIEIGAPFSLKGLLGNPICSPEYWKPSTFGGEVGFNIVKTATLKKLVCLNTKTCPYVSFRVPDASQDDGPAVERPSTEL

Row | SMILES | IC50 ([1]; sf9) | IC50 [2] | IC50 [3] | IC50 [4] | IC50 [5] | Ki [5] | IC50 (Caspase-1) | IC50 (Nitric oxide synthase 1) | IC50 ([1]; read-out: IC50) | Ki ([1]; read-out: Ki) | Ki ([1]; sf9) | Ki [2] | Ki [3] | Ki [4] | Ki (Caspase-1) | Ki (Nitric oxide synthase 1)
1 | COc1ccccc1C(=O)N1CCC(Cc2ccccc2)CC1 | Not Active | Not Active | Not Active | Not Active | Not Active | Not Active | Not Active | Not Active | – | – | – | – | – | – | – | –
2 | Cc1ccccc1C(=O)N1CCC(Cc2ccccc2)CC1 | Not Active | Not Active | Not Active | Not Active | Not Active | Not Active | Not Active | Not Active | – | – | – | – | – | – | – | –
3 | O=C1CC[C@H](N2C(=O)c3ccccc3C2=O)C(=O)N1 | Not Active | Not Active | Not Active | Not Active | Not Active | Not Active | Not Active | Not Active | – | – | – | – | – | – | – | –
4 | N=C(Nc1ccccc1)Nc1ccccc1 | Not Active | Not Active | Not Active | Not Active | Not Active | Not Active | Not Active | Not Active | – | – | – | – | – | – | – | –
5 | C[C@@H](O)[C@H](CO)NC(=O)[C@@H]1CSSC[C@H](NC(=O)[C@H](N)Cc2ccccc2)C(=O)N[C@@H](Cc2ccccc2)C(=O)N[C@H](Cc2c[nH]c3ccccc23)C(=O)N[C@@H](CCCCN)C(=O)N[C@@H]([C@@H](C)O)C(=O)N1 (H-[dF]CF[dW]KTC-{Threoninol(2S,3R)}; disulfide 2-7) | Not Active | Not Active | Not Active | Not Active | Not Active | Not Active | Not Active | Not Active | – | – | – | – | – | – | – | –
6 | S=C=Nc1cccc2ccccc12 [1-NAPHTHYLISOTHIOCYANATE] | – | Not Active | Not Active | Not Active | Not Active | Not Active | Not Active | Not Active | 6.27 µM | 2.35 µM | – | – | – | – | – | –
7 | C[C@](O)(CS(=O)(=O)c1ccc(F)cc1)C(=O)Nc1ccc(C#N)c(C(F)(F)F)c1 [(R)-BICALUTAMIDE] | Not Active | Not Active | Not Active | Not Active | Not Active | Not Active | Not Active | Not Active | – | – | – | – | – | – | – | –
8 | CCCC(=O)Nc1ccc(OCC(O)CNC(C)C)c(C(C)=O)c1 (configuration not stated) [ACEBUTOLOL] | Not Active | Not Active | Not Active | Not Active | Not Active | Not Active | Not Active | Not Active | – | – | – | – | – | – | – | –
9 | CC(=O)Nc1ccc(O)cc1 [ACETAMINOPHEN] | Not Active | Not Active | Not Active | Not Active | Not Active | Not Active | Not Active | Not Active | – | – | – | – | – | – | – | –
10 | COc1cc2c(c3oc(=O)c4c(c13)CCC4=O)[C@@H]1C=CO[C@@H]1O2 [AFLATOXIN] | Not Active | Not Active | Not Active | Not Active | Not Active | Not Active | Not Active | Not Active | – | – | Not Active | Not Active | Not Active | Not Active | Not Active | Not Active
11 | N=C(N)NC(=O)c1nc(Cl)c(N)nc1N [AMILORIDE] | Not Active | Not Active | Not Active | Not Active | Not Active | Not Active | Not Active | Not Active | – | – | – | – | – | – | – | –
12 | Cc1cc(=O)n(-c2ccccc2)n1C [ANTIPYRINE] | Not Active | Not Active | Not Active | Not Active | Not Active | Not Active | Not Active | Not Active | – | – | – | – | – | – | – | –
13 | CN1C(=O)COc2c(C(=O)NC3CN4CCC3CC4)cc(Cl)cc21 (configuration not stated) [AZASETRON] | Not Active | Not Active | Not Active | Not Active | Not Active | Not Active | Not Active | Not Active | – | – | – | – | – | – | – | –
14 | C[C@H]1C[C@H]2[C@@H]3CCC4=CC(=O)C=C[C@]4(C)[C@@]3(Cl)[C@@H](O)C[C@]2(C)[C@@]1(O)C(=O)CO [BECLOMETHASONE] | Not Active | Not Active | Not Active | Not Active | Not Active | Not Active | Not Active | Not Active | – | – | – | – | – | – | – | –
15 | CCOC(=O)[C@H](CCc1ccccc1)N[C@H]1CCc2ccccc2N(CC(=O)O)C1=O [BENAZEPRIL] | Not Active | Not Active | Not Active | Not Active | Not Active | Not Active | Not Active | Not Active | – | – | – | – | – | – | – | –
16 | Nc1c(CC(=O)O)cccc1C(=O)c1ccc(Br)cc1 [BROMFENAC] | Not Active | – | Not Active | Not Active | Not Active | Not Active | Not Active | Not Active | – | – | – | – | – | – | – | –
17 | CCCCN1CCCCC1C(=O)Nc1c(C)cccc1C.Cl (configuration not stated) [BUPIVACAINE HYDROCHLORIDE] | Not Active | Not Active | Not Active | Not Active | Not Active | Not Active | Not Active | Not Active | – | – | – | – | – | – | – | –
18 | O=C1CC2(CCCC2)CC(=O)N1CCCCN1CCN(c2ncccn2)CC1 [BUSPIRONE] | Not Active | Not Active | Not Active | Not Active | Not Active | Not Active | Not Active | Not Active | – | – | – | – | – | – | – | –
19 | C[C@@]12C(=O)OC(=O)[C@]1(C)[C@H]1CC[C@@H]2O1 [CANTHARIDIN] | Not Active | Not Active | Not Active | Not Active | Not Active | Not Active | Not Active | Not Active | – | – | – | – | – | – | – | –
20 | O=NN(CCCl)C(=O)NCCCl [CARMUSTINE] | Not Active | Not Active | Not Active | Not Active | Not Active | Not Active | Not Active | Not Active | – | – | – | – | – | – | – | –
21 | CC1=C(C(=O)O)N2C(=O)[C@@H](NC(=O)[C@H](N)c3ccccc3)[C@H]2SC1 [CEPHALEXIN ANHYDROUS] | Not Active | Not Active | Not Active | Not Active | Not Active | Not Active | Not Active | Not Active | – | – | – | – | – | – | – | –
22 | O=C(N[C@H](CO)[C@H](O)c1ccc([N+](=O)[O-])cc1)C(Cl)Cl [CHLORAMPHENICOL] | Not Active | Not Active | Not Active | Not Active | Not Active | Not Active | Not Active | Not Active | – | – | – | – | – | – | – | –
23 | O=C(O)Cc1ccccc1Nc1c(Cl)cccc1Cl [DICLOFENAC] | Not Active | – | Not Active | Not Active | Not Active | Not Active | Not Active | Not Active | – | – | – | – | – | – | – | –
24 | CC(C)Cc1ccc(C(C)C(=O)O)cc1 (configuration not stated) [IBUPROFEN] | Not Active | – | Not Active | Not Active | Not Active | Not Active | Not Active | Not Active | – | – | – | – | – | – | – | –
25 | COc1ccc2c(c1)c(CC(=O)O)c(C)n2C(=O)c1ccc(Cl)cc1 [INDOMETHACIN] | Not Active | – | Not Active | Not Active | Not Active | Not Active | Not Active | Not Active | – | – | – | – | – | – | – | –
26 | CC(C(=O)O)c1cccc(C(=O)c2ccccc2)c1 (configuration not stated) [KETOPROFEN] | Not Active | – | Not Active | Not Active | Not Active | Not Active | Not Active | Not Active | – | – | – | – | – | – | – | –
27 | COc1ccc2cc([C@H](C)C(=O)O)ccc2c1 [NAPROXEN] | Not Active | – | Not Active | Not Active | Not Active | Not Active | Not Active | Not Active | – | – | – | – | – | – | – | –
